This note sets out measurements from ChEMBL document CHEMBL1154142, “Tyrosine derivatives isolated from Streptomyces sp. IFM 10937 in a screening program for TRAIL-resistance-overcoming activity” (2008).

Holding throughout (format): functional
The subject of assay [1] is AGS. The assay is described as follows: Anticancer activity against TRAIL-resistant human AGS cells assessed as cell viability at 150 uM after 24 hrs by fluorometric microculture cytotoxicity assay in presence of 100 ng/ml TRAIL.
The test system of assay [2] is AGS. In words: Anticancer activity against TRAIL-resistant human AGS cells assessed as cell viability at 75 uM after 24 hrs by fluorometric microculture cytotoxicity assay in presence of 100 ng/ml TRAIL.
The subject of assay [3] is AGS. The assay is described as follows: Anticancer activity against TRAIL-resistant human AGS cells assessed as cell viability at 17.5 uM after 24 hrs by fluorometric microculture cytotoxicity assay in presence of 100 ng/ml TRAIL.
Assay [4] has as its system AGS. In words: Anticancer activity against TRAIL-resistant human AGS cells assessed as cell viability at 37.5 uM after 24 hrs by fluorometric microculture cytotoxicity assay in presence of 100 ng/ml TRAIL.

Calls of active or inactive are those of the source. The calls are words filed in the database; no cut-off is given here.

Consider `CC(C)=CCc1cc(C[C@H](N)C(=O)O)ccc1O`, for which the result in assay [1] and in assay [2] was inactive. With `O=c1cc(-c2ccc(O)c(O)c2)oc2cc(O)cc(O)c12` [LUTEOLIN], the Activity in assay [3] was 70%. On to `CO[C@@H]1[C@@H](OC(N)=O)[C@@H](O)[C@H](Oc2ccc3c(O)c(NC(=O)c4ccc(O)c(CC=C(C)C)c4)c(=O)oc3c2C)OC1(C)C` [NOVOBIOCIN], for which the Activity in assay [2] worked out at 63%; in assay [4] it was 72%.

Consider `CC(=O)N[C@@H](Cc1ccc(O)c(CC=C(C)C)c1)C(=O)O`, for which the values for the Activity in assay [1] and in assay [2] were 67% and 77%, respectively.
